# Assay results taken from patent US20050159345A1 (Boehringer Ingelheim International GmbH, priority 2002, published 2005).
# Legend:
# [1] = target: T1, HCV genotype 2a-c NS3-NS4A protease (UniProt P26660); assay: Inhibition constant (Ki) determination, genotype 2a-c; assay type: biochemical; details: read-out: Ki HCV genotype 2a-c
# T1 sequence (P26660 1031-1661): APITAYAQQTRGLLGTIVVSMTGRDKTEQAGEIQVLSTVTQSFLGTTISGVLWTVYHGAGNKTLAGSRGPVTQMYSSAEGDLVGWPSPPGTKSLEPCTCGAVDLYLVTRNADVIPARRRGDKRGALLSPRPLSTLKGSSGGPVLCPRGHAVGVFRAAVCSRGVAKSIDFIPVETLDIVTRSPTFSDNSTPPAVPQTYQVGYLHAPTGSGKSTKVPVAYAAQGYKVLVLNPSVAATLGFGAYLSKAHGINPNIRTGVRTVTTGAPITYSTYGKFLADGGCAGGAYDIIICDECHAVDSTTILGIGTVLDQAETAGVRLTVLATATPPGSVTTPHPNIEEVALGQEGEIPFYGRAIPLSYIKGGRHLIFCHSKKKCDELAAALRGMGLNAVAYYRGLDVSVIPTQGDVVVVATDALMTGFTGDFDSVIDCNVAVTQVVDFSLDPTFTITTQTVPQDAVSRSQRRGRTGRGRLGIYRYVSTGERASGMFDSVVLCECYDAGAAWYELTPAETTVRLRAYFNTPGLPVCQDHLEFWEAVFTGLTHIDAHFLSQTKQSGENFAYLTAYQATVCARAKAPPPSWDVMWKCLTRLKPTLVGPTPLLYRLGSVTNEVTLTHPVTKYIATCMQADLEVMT
# [2] = tested on: HCV replicon-containing, Huh-7-derived cell lines; details: human
# GBV-B = assay: Inhibition of GBV-B replication in tamarin hepatocytes in culture; assay type: cell-based
# Procedure: Hepatocytes isolated from uninfected tamarins were maintained in culture in defined medium for several days. The cell culture model was as described by Beames et al. 2000. Three days after plating, the cells were infected with GBV-B-containing plasma. After viral adsorption, the virus was removed and the cells were incubated in the presence and absence of candidate test compounds at a concentration of 10 μM. The cells were harvested 7 days post infection. The levels of GBV-B RNA were quantitated from total cellular RNA by a real-time PCR assay using a primer-probe combination that recognized a portion of the GBV-B capsid gene (Beames et al. 2000).
SMILES,Ki [1],Cytotoxicity (concentration at which not observed) [2],inhibition of GBV-B replication (FIG. 7) (GBV-B),"reduction in the viral RNA levels (GBV-B; 10 μM, 7 days post infection, g.e./μg RNA)"
COc1ccc2c(O[C@@H]3C[C@H]4C(=O)N[C@]5(C(=O)O)CC5/C=C\CCCCC[C@H](NC(=O)OC5CCCC5)C(=O)N4C3)cc(-c3csc(NC(C)C)n3)nc2c1 (stereo partly shown) [IV],0.086 µM,higher than 1000 nM,,
COc1ccc2c(O[C@@H]3C[C@H]4C(=O)N[C@]5(C(=O)O)CC5/C=C\CCCCC[C@H](NC(=O)OC(C)(C)C)C(=O)N4C3)cc(-c3csc(NC(C)=O)n3)nc2c1 (stereo partly shown) [III],,,dose-dependent inhibition,> 3 log
